For one series, the system named is collagenase. Nature of the series: Collagenase expression suppression in human fibroblasts. The class given is cell-based. The note with it: 10^−4 M, 24 hours, untreated group = 100. How it is done: Tocopherol and EGCG are known to prevent skin aging by regenerating epidermal cells.
Human fibroblasts were added to a 96-well microtiter plate containing Dulbecco's modified Eagle's medium (DMEM) supplemented with 2.5 wt % fetal bovine serum, with 5,000 cells/well, and cultured to about 90% confluence.
The production of collagenase in the cell culture was measured using a collagenase measuring system (Amersham Pharmacia, USA). First, the harvested cell culture was added to a 96-well plate having primary collagenase antibodies applied uniformly thereto and was incubated for 3 hours in a constant-temperature bath. 3 hours later, after adding chromophore-conjugated secondary collagen antibodies to the 96-well plate, incubation was performed for 15 minutes. 15 minutes later, a substance inducing color development was added and color development was induced at room temperature for 15 minutes. […] The intensity of the yellow color varied depending on the degree of progress of the reaction.
A cell culture obtained without treating with the composition was used as a control group. That is to say, the expression level of collagenase in the group treated with the test substance was calculated relative to that of the untreated group as 100.
Collagenase expression level(%)=Absorbance of group treated with test substance/Absorbance of control group×100 [Equation 1]

The subject of the next series is MCP-1. In words: MCP-1 ELISA in retinoic acid-treated normal human skin keratinocytes. The class given is cell-based. The note with it: NHEKs, 24 hours. How it is done: One day before the testing, normal human skin keratinocytes (NHEKs, Lonza) were added to a 96-well plate with 5×10^4 cells/well and cultured in a 5% CO2 incubator at 37° C. for 24 hours. 24 hours later, the cells were washed with PBS twice and the cell culture medium was replaced with a serum-free keratinocyte basement medium (KBM). […] The retinoic acid is known to promote the secretion of the inflammatory cytokine MCP (monocyte chemoattractant protein-1) as a skin irritant. […] For the ELISA, the method provided by BD Science was used.

The subject of the next series is Mel-Ab cells. Nature of the series: Melanin production inhibition in Mel-Ab cells (Dooley's method). The class given is cell-based, mouse. The note with it: 10 ppm, added for 3 consecutive days. The method, then:
Melanocytes derived from C57BL/6 mouse (Mel-Ab cells) (Dooley, T. P. et al, Skin Pharmacol, 7, pp. 188-200) were cultured in DMEM supplemented with 10% fetal bovine serum, 100 nM 12-O-tetradecanoylphorbol-13-acetate and 1 nM cholera toxin under the condition of 37° C. and 5% CO2. The cultured Mel-Ab cells were detached with 0.25% trypsin-EDTA and cultured in a 24-well plate with a concentration of 10^5 cells/well. During the culturing, each test substance was added for 3 consecutive days starting from day 2. […] After removing the medium, the cells were washed with phosphate-buffered saline (PBS) and lysed with 1 N sodium hydroxide. After measuring absorbance at 400 nm, the melanin production inhibition was calculated according to Equation 2.
Melanin production inhibition(%)=100−(Absorbance of group treated with test substance/Absorbance of control group×100) [Equation 2]

The nature of series [1]: Skin irritation test by sensitive panels. The class given is in vivo, human. The note with it: scale 0-3.0. The text has this:
0.5-1.0: Slight irritation.
1.1-2.0: Moderate irritation.
2.1-3.0: Severe irritation.

The nature of series [2]: DPPH method, antioxidative effect. The class given is biochemical. To be noted: sample concentration at which DPPH absorbance (540 nm) decreased by 50%; 37° C., 30 minutes. The method, then:
The DPPH method evaluates antioxidative effect by measuring and comparing the effect of suppressing DPPH oxidation based on the change in absorbance caused by the reduction of DPPH. […] After incubation at 37° C. for 30 minutes, absorbance was measured at 540 nm. The analysis result is shown in Table 3, where IC50 means the sample concentration when the absorbance was decreased by 50% due to the added sample.

[3] abbreviates: 0.5 mL on cheek, 15 sensitive panels.

7 molecules from patent publication US20170196797A1 (AMOREPACIFIC CORPORATION, priority 2014, published 2017) can be followed below.

For the molecule `O=C(O[C@@H]1Cc2c(O)cc(O)cc2O[C@@H]1c1cc(O)c(O)c(O)c1)c1cc(O)c(O)c(O)c1` [EGCG], in the series with collagenase, the Collagenase expression level is 59%.

As for `C[C@]12CCC(=O)C=C1CC[C@@H]1[C@@H]2[C@@H](O)C[C@@]2(C)[C@H]1CC[C@]2(O)C(=O)CO` [Hydrocortisone, hydrocortisone], the MCP-1 secretion with MCP-1 (100 nM + retinoic acid 10 μM) was found to be 448.3 pg/mL.

For the molecule `Oc1ccc(O)cc1` [Hydroquinone, hydroquinone], in the series with Mel-Ab cells, the Melanin production inhibition is recorded as 57.5%.

In series [1] (setting [3]), `O=c1cc(CO)occ1O` [Kojic acid, kojic acid] came in with a Flushing score of 0.43 points and a Pricking score of 0.81 points. In series [1] (mean of pricking and flushing), this molecule gave a Mean irritation score of 0.62 points.

Take `CC1=C(/C=C/C(C)=C/C=C/C(C)=C/C(=O)O)C(C)(C)CCC1` [Retinoic acid, retinoic acid]: the MCP-1 secretion in the series with MCP-1 (retinoic acid 10 μM alone, untreated group 527.3) was 804.5 pg/mL.

On to `Cc1c(C)c2c(c(C)c1O)CCC(C)(C(=O)O)O2` (stereo not drawn) [Trolox], for which the IC50 in series [2] amounted to 57 ppm.

tocopherol yielded a Collagenase expression level in the series with collagenase of 81%.
